Measurements from the supplement of paper PMC10307832.

Assays:
Experiment in all cases: relative viability (nuclei count vs DMSO), 5 days (fraction); higher = more cells survive
[1] = compound: CN[C@@H]1C[C@H]2O[C@@](C)([C@@H]1OC)n1c3ccccc3c3c4c(c5c6ccccc6n2c5c31)C(=O)NC4 [Staurosporine] + N=C(N)NC(=N)NCCc1ccccc1 [Phenformin] (partner 250 µM)
Method in brief: (§1)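 Nuclei were stained with Hoechst during a one-step fixation (final 0.05% Triton X-100, 1% formaldehyde, 1 ug/ml Hoechst) carried out 5 days after dosing, then counted on 4× images. The cells, lung cancer lines in 1536-well plates, had been dosed by pin tool the day after seeding with one drug alone or a fixed anchor-drug dose plus five library-drug doses (not always all listed) in √10 steps. Relative viability is the nuclei count in treated wells divided by that in vehicle wells, and each value is the median of duplicate plates.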

Staurosporine + Olaparib = compound: CN[C@@H]1C[C@H]2O[C@@](C)([C@@H]1OC)n1c3ccccc3c3c4c(c5c6ccccc6n2c5c31)C(=O)NC4 [Staurosporine] + O=C(c1cc(Cc2n[nH]c(=O)c3ccccc23)ccc1F)N1CCN(C(=O)C2CC2)CC1 [Olaparib] (partner 8 µM)
Method in brief: as §1

Sulindac + Palbociclib = compound: CC1=C(CC(=O)O)c2cc(F)ccc2/C1=C\c1ccc([S+](C)[O-])cc1 [Sulindac] + CC(=O)c1c(C)c2cnc(Nc3ccc(N4CCNCC4)cn3)nc2n(C2CCCC2)c1=O [Palbociclib] (partner 0.5 µM)
Method in brief: as §1

[2] = compound: O=c1[nH]cc(F)c(=O)[nH]1 [5-Fluorouracil] + N=C(N)NC(=N)NCCc1ccccc1 [Phenformin] (partner 250 µM)
Method in brief: as §1

Cell Line	relative viability ([1]; first compound 0.005 µM)	relative viability ([1]; first compound 0.01581 µM)	relative viability ([1]; first compound 0.05 µM)	relative viability ([1]; first compound 0.1581 µM)	relative viability ([1]; first compound 0.5 µM)	relative viability (Staurosporine + Olaparib; first compound 0.005 µM)	relative viability (Staurosporine + Olaparib; first compound 0.01581 µM)	relative viability (Staurosporine + Olaparib; first compound 0.05 µM)	relative viability (Staurosporine + Olaparib; first compound 0.1581 µM)	relative viability (Staurosporine + Olaparib; first compound 0.5 µM)	relative viability (Sulindac + Palbociclib; first compound 0.08 µM)	relative viability (Sulindac + Palbociclib; first compound 0.253 µM)	relative viability (Sulindac + Palbociclib; first compound 0.8 µM)	relative viability (Sulindac + Palbociclib; first compound 2.53 µM)	relative viability (Sulindac + Palbociclib; first compound 8 µM)	relative viability ([2]; first compound 0.02 µM)	relative viability ([2]; first compound 0.2 µM)	relative viability ([2]; first compound 0.6325 µM)	relative viability ([2]; first compound 2 µM)
NCI-H1993	0.507	0.408	0.463	0.455	0.421	0.941	0.73	0.717	0.497	0.313	0.666	0.658	0.591	0.727	0.604	0.538	0.514	0.494	0.459
NCI-H2342	0.686	–	0.427	0.301	0.281	0.436	0.315	0.363	0.398	0.394	0.466	0.482	0.536	0.481	0.56	0.619	0.72	0.559	0.635
NCI-H520	0.758	0.233	0.394	0.25	0.166	0.347	0.302	0.211	0.138	0.139	0.231	0.239	0.221	0.244	0.278	0.525	0.677	0.46	0.442
LCLC-103H	0.296	0.211	0.16	0.108	0.105	0.851	0.477	0.403	0.247	–	0.465	0.496	0.478	0.453	0.424	0.339	0.327	0.258	0.249
HCC-78	0.639	0.45	0.486	0.376	0.287	0.98	0.638	0.654	0.455	0.417	0.481	0.48	0.501	0.444	0.442	0.697	0.706	0.558	0.312
NCI-H1975	0.208	0.135	0.136	0.103	0.0912	0.306	0.225	0.165	0.107	0.104	0.621	0.638	0.451	0.546	0.619	0.385	0.357	0.266	0.194
